Source: paper PMC3914206

Legend:
Format in all cases: binding
panel of 442 kinases [1] = target: T1, panel of 442 kinases (Homo sapiens, UniProt P06213); conditions: Compound Concentration 10 µM
T1 construct: purchased KINOMEscan
Description: (§1) We assessed the selectivity of members of this scaffold using the KINOMEscan methodology across a near comprehensive panel of 442 kinases [[18,27]].

panel of 442 kinases [2] = target: T2, panel of 442 kinases (Homo sapiens, UniProt P30291); conditions: kinase WEE1; compound concentration 10 µM
T2 construct: purchased KINOMEscan
Description: as §1

panel of 442 kinases [3] = target: T3, panel of 442 kinases (Homo sapiens, UniProt Q06187); conditions: Compound Concentration 10 µM
T3 construct: purchased KINOMEscan
Description: as §1

panel of 442 kinases [4] = target: T4, panel of 442 kinases (Homo sapiens, UniProt Q9HC98); conditions: Compound Concentration 10 µM
T4 construct: purchased KINOMEscan
Description: as §1

T4 sequence (Q9HC98 whole entry): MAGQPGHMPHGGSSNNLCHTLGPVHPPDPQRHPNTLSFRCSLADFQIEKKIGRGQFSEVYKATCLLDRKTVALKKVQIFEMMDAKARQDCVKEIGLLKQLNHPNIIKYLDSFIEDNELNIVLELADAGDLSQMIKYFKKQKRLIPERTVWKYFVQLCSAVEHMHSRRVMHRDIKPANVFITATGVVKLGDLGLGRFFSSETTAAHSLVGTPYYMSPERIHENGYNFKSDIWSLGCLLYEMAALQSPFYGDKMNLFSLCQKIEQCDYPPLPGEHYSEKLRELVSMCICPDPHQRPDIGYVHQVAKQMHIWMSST
T1 sequence (P06213 28-1382): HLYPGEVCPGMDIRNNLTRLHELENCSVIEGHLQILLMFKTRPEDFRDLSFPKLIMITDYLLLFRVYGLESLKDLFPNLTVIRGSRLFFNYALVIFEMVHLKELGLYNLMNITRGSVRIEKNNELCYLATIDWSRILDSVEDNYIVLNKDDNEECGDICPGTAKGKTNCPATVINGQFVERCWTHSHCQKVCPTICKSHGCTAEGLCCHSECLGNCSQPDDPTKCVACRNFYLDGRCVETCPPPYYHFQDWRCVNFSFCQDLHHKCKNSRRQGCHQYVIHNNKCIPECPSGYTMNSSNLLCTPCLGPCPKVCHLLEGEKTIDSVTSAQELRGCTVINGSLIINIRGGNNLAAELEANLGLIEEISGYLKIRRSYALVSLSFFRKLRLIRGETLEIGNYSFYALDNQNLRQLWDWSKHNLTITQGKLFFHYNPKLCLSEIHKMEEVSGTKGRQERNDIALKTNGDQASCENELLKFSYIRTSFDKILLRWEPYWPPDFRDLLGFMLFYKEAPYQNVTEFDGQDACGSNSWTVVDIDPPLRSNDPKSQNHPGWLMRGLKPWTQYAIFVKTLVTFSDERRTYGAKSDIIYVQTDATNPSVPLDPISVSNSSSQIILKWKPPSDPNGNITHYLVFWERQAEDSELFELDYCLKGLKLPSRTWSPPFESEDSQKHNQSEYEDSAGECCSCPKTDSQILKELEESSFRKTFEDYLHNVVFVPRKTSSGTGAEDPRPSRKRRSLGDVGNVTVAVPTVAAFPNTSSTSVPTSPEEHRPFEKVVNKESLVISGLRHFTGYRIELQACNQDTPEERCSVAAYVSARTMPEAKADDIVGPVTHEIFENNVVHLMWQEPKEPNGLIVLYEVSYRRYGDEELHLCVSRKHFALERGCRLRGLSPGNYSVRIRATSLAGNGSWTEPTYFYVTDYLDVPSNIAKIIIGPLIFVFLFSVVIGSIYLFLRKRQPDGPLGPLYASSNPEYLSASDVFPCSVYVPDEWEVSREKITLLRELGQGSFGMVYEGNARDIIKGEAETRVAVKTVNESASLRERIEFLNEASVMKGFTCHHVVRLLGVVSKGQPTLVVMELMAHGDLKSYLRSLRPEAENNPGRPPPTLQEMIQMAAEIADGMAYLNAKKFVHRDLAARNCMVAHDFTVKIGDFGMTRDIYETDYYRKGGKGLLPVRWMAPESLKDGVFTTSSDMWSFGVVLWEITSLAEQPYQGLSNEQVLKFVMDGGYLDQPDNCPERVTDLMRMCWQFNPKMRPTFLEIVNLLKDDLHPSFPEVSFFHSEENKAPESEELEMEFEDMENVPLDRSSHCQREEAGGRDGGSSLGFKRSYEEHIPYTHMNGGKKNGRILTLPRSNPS
T3 sequence (Q06187 whole entry): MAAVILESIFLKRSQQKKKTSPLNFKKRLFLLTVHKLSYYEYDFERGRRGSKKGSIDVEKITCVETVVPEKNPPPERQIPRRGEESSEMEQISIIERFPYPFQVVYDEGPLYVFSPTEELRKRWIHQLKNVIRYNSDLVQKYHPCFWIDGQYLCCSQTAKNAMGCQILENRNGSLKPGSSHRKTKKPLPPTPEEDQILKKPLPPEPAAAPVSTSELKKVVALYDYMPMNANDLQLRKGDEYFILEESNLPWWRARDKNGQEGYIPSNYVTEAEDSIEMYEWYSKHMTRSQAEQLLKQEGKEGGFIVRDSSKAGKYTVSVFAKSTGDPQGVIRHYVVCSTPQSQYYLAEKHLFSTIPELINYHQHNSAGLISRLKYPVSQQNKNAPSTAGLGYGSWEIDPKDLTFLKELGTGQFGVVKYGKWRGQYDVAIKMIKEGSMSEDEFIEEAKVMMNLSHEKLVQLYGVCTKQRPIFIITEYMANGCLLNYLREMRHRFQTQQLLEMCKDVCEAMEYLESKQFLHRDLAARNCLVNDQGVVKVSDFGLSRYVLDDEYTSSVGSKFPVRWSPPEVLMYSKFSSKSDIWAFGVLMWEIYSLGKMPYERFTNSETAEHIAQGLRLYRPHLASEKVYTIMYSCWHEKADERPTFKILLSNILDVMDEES
T2 sequence (P30291 whole entry): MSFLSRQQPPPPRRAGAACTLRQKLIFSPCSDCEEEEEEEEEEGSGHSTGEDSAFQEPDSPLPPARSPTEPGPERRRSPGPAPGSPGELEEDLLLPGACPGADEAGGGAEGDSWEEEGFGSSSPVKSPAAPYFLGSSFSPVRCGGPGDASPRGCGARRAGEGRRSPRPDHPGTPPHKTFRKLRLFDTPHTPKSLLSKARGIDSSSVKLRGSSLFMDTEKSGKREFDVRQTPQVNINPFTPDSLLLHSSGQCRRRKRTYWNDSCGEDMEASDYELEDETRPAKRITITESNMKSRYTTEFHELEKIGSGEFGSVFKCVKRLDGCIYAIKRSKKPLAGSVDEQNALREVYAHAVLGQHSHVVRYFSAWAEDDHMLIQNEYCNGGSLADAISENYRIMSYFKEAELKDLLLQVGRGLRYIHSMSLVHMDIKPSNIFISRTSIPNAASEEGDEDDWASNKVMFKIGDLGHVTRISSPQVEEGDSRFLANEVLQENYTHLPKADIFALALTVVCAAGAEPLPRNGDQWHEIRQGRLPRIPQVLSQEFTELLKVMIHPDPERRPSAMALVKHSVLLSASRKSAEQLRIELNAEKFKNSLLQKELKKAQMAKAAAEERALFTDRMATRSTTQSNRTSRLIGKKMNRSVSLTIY

Row | Structure (SMILES) | KINOMEscan: INSR (panel of 442 kinases [1]) | % Ctrl, WEE1 (panel of 442 kinases [2]) | KINOMEscan: BTK (panel of 442 kinases [3]) | KINOMEscan: NEK6 (panel of 442 kinases [4])
1 | COc1cc(C(=O)N2CCC(N3CCN(C)CC3)CC2)ccc1Nc1ncc2c(n1)N(C)c1ccccc1C(=O)N2C [15 (LRRK2-IN-1)] | 84 | 100 % Ctrl | 100 | 76
2 | COc1cc(C(=O)N2CCC(N3CCN(C)CC3)CC2)ccc1Nc1ncc2c(n1)N1CCc3cccc(c31)C(=O)N2C [Compound 24] | 78 | 82 % Ctrl |  | 56
3 | COc1cc(C(=O)N2CCC(N3CCN(C)CC3)CC2)ccc1Nc1ncc2c(n1)N(C1CCCC1)c1ccccc1C(=O)N2C [Compound 25, 11-cyclopentyl-2-((2-methoxy-4-(4-(4-methylpiperazin-1-yl)piperidine-1-carbonyl)phenyl)amino)-5-methyl-5H-benzo[e]pyrimido[5,4-b][1,4]diazepin-6(11H)-one] | 88 | 98 % Ctrl | 98 | 100
4 | CCOc1cc(C(=O)N2CCC(N3CCN(C)CC3)CC2)ccc1Nc1ncc2c(n1)N(C1CCCC1)c1ccccc1C(=O)N2C [Compound 26] | 100 | 100 % Ctrl | 100 | 100
